Experimental data reported in US7282507B2, “Indole derivatives as selective androgen receptor modulators (SARMS)” (Janssen Pharmaceutica N.V., priority 2004, dated 2007).

Legend:
[1] = biological target: T1, androgen receptor (rat ventral prostate cytosol) (Rattus norvegicus, UniProt P15207); assay: Androgen Receptor Binding Using Rat Ventral Prostate Cytosol; settings: for IC50: read-out: IC50 (nM), Androgen Receptor Binding (Rat Cytosol); for inhibition at 1 µM: read-out: % Inhibition, Androgen Receptor Binding (Rat Cytosol)
T1 construct: from tissue; host or cells: ventral prostate cytosol of castrated male Sprague Dawley or Wistar rats
T1 sequence (P15207 1-902): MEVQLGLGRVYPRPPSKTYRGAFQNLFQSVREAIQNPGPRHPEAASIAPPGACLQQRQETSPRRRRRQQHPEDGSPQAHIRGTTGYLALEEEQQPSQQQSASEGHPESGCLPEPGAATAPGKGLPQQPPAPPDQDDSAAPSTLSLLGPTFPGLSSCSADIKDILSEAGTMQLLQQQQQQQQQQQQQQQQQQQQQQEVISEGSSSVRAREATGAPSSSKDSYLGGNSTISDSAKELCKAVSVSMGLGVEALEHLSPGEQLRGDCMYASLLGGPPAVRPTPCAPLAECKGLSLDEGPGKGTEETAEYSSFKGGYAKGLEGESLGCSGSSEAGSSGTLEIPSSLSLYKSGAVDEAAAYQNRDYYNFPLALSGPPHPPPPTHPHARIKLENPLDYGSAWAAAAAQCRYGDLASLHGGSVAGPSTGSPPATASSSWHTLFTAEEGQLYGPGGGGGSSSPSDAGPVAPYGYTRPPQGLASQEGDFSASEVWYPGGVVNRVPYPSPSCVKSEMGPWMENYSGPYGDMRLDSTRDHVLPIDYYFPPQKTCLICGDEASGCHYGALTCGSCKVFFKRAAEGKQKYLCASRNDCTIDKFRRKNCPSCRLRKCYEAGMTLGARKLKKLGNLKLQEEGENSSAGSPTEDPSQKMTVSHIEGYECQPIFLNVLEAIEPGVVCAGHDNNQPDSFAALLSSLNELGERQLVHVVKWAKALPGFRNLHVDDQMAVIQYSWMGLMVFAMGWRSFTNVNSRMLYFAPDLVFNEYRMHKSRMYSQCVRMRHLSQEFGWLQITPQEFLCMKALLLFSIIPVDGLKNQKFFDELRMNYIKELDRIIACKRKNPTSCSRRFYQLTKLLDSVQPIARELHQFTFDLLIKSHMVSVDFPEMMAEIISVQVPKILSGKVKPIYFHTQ
Method: The assay was run on a 96 well plate with each well filled with a total reaction volume 150 μL, of a solution containing 5 pmol androgen receptor LBD (Panvera) or 30 μL of freshly prepared rat cytosol, 0.5 nM [^3H] […] (TED buffer contains 10 mM Tris.HCl pH 7.4, 1 mM sodium molybdate, 1.5 mM EDTA, 1 mM DTT and 10% (v/v) glycerol.)
On day one, the solution containing receptor, tracer and TED buffer was distributed into a 96 well plate. Diluted test compound or control vehicle was then added to individual wells and the plate incubated at 4° C. overnight.
On day two, to each well was then added 20 μL human γ-globulin (ICN 823102), prepared at 25 mg/ml in TE pH 8.0, and 55 μL 40% polyethylene glycol 8000 (J T Baker U222-08), prepared in TE pH 8.0. The plate was incubated at 4° C. for 60 minutes. During incubation, the harvester was rinsed with 10% PEG 8000, prepared in TE pH 8.0, and a GF/C Unifilter-96 was pre-wet with 10% PEG. The binding reaction was filtered, the retentate was washed three times with 10% PEG and dried under vacuum for a couple of minutes, then dried at 50° C. for 5 min and the plate was bottom sealed. Next, 25 μL of Microscint-20 (Packard) was added to the filter wells and the plate was top sealed. The plate wells were then counted on a TopCount (Packard).
Rat Prostate Cytosol Preparation:
Male Sprague Dawley or Wistar rats (Charles River, 200-300 g) were used for each preparation. The day before preparing the cytosol, the rats were castrated using standard surgical procedures.
The rats were euthanized by carbon dioxide asphyxiation. The rat prostates were quickly removed and placed on ice in pre-chilled, pre-weighed 50 mL plastic tubes. No more than five prostates were placed into one tube. The tubes were then weighed and the prostate tissue wet weights calculated.
To the chilled prostate tissue was then added […] of chilled homogenization buffer. The homogenization buffer was freshly prepared by mixing 10 mM Tris.HCl, pH 7.4, 1 mM sodium molybdate, 1.5 mM EDTA, 1 mM dithiothreitol, 10% (v/v) glycerol and 1% protease inhibitor cocktail (Sigma P 8340).
The prostate tissue was homogenized in a cold room using a pre-chilled Polytron PT3000 homogenizer (Brinkmann). Homogenization was performed at a speed setting of 20, three times for 10 sec bursts. The tubes containing the prostate tissue was kept on ice while homogenizing. The homogenate was allowed to rest on ice for 20 sec between bursts.
The homogenate was then placed into pre-chilled 3 mL polycarbonate ultracentrifuge tubes and centrifuged in the TLA-100 rotor of a TL-100 ultracentrifuge for 12 min at 100,000 rpm at 4° C. The resulting supernatant was stored in 1 mL aliquots at −80° C. until needed.
Binding to the androgen receptor was determined according to the protocol described in Example 86 using the above prepared rat cytosol.
% Inhibition was determined by testing dilutions of the test compound (usually duplicates of 10 μM) in the binding assay. Counts per well were measured and percents of inhibition determined. […] Counts per well were measured and IC50s determined by linear regression.

[2] = system: testosterone-enhanced ventral prostate and seminal vesicle weights; assay: Ventral Prostate and Seminal Vesicle Weight in vivo Assay; parameters: species or system rat; settings: immature castrated male Sprague Dawley rats, once daily for five days, usually orally 40 mg/kg, with testosterone propionate 2 mg/kg s.c. Further: key: 'active' if the non weight adjusted prostate weight was ≦40 mg or the % Inhibition prostate weight, body weight adjusted was ≧40% @ 2 mg/day dosage; ID50's, if determined, of ≦15 mg/day also indicated an 'active' compound; listed herein as 'inactive' as they did not meet the specified criteria defined above.
In short: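 Immature castrated male Sprague Dawley rats (~50 g) were dosed once daily for five days with compound, usually orally at 40 mg/kg in cyclodextrin or methylcellulose vehicle. Testosterone propionate was co-dosed subcutaneously at 2 mg/kg. On day six, ventral prostate and seminal vesicle wet weights were measured; activity was judged on prostate weight or body-weight-adjusted % inhibition.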

[3] = biological target: T2, androgen receptor (AdEasy+rAR, L929 cells) (Rattus norvegicus, UniProt P15207); assay: L929 Androgen Receptor Functional Assay, Adenovirus Transduction; assay type: cell-based; settings: agonist testing, 3000 nM
T2 construct: expressed in transfected cells; host or cells: L929 cells transduced with adenovirus AdEasy+rAR
T2 sequence (P15207 1-902): T1 sequence (P15207 1-902)
Method: L929 cells were plated in 96-well plates at 20,000 cells per well, in DMEM/F12 (GIBCO) containing 10% (v/v) charcoal-treated fetal bovine serum (Hyclone) and lacking phenol red. The plates were then incubated overnight at 37° C. in 5% (v/v) humidified CO2.
Test compound dilutions were prepared in 100% (v/v) DMSO, if necessary. Each dilution was made to 1250× the final desired assay concentration.
First, 2 mL of DMEM/F12 lacking phenol red was pipetted into the wells of a 2-mL 96-well assay block. Next, 4 μL of the 1250× test compound dilutions were pipetted into each well of the assay block. The mixtures within the well were then carefully mixed by pipette.
In a 15 mL or 50 mL sterile centrifuge tube, a 2.5 nM (2.5×) dilution of R1881 (methyl-trienolone) in DMEM/F12 lacking phenol red was prepared.
In a second 15 mL or 50 mL centrifuge tube a solution containing an equal volume of DMEM to the first and an equal volume of 100% (v/v) DMSO to the volume of R1881 used in the first tube was prepared.
In a 15 mL or 50 mL sterile centrifuge tube, a dilution in DMEM/F12 of the adenovirus AdEasy+rAR at an moi of 1:500 per well was prepared.
The medium was removed from the 96-well plates by inversion and dried, inverted, very briefly. As soon as possible after medium removal, 40 μL of the diluted unlabeled test compound was added to each well, in duplicate. To each well designated for antagonist testing was added 40 μL of the 2.5 nM R1881 dilution to the wells for antagonist testing. To each well designated for agonist testing was added 40 μL of the DMSO dilution. Then 20 μL of the diluted adenovirus were added to all wells. The plates were incubated for 48 hours at 37° C. in 5% (v/v) humidified CO2.
To each well was added 100 μL of Steady-Glo luciferase assay substrate (Promega) and the plates were placed on a rotary shaker for 1 min. The plates were then incubated at room temperature in the dark for one hour. The contents of each well were then transferred to a white microtiter plate (Packard) and read on a Luminoskan Ascent (Thermo Lab Systems).
L929 AR percent activity was determined by testing dilutions of the test compound using a concentration of 3000 nM unless otherwise noted. L929 percent inhibition was determined by testing dilutions of the test compound using a concentration of 3000 nM. […] Luciferase activity per well were measured and EC50s and IC50s determined by linear regression.

## CS(=O)(=O)c1ccc(CN2CCC(O)(c3cc4cc(Cl)c(C(F)(F)F)cc4[nH]3)CC2)cc1 [Compound 34]
[1]; Concentration 1000 nM
  % Inhibition, Androgen Receptor Binding (Rat Cytosol): 18%
[1]
  IC50: 5700 nM

## CC(O)(CS(=O)(=O)Cc1ccccc1)c1cc2cc([N+](=O)[O-])c(C(F)(F)F)cc2[nH]1 (racemic) [Compound 162]
[2]
  active / inactive: inhibition of testosterone-enhanced prostate weight: inactive
[3]
  % Activity, L929 androgen receptor functional assay: 2%
[1]; Concentration 3000 nM
  % Inhibition, Androgen Receptor Binding (Rat Cytosol): 0.69%

## Cc1ccc(CN2CCC(O)(c3cc4cc([N+](=O)[O-])c(C(F)(F)F)cc4[nH]3)CC2)cc1 [Compound 42]
[1]; Concentration 1000 nM
  inhibition at 1 µM: 23%
[1]
  IC50: 7100 nM

## COc1ccc(CN2CCC(O)(c3cc4cc(Cl)c(C(F)(F)F)cc4[nH]3)CC2)cc1 [Compound 35]
[1]; Concentration 1000 nM
  % Inhibition, Androgen Receptor Binding (Rat Cytosol): −19%
[1]
  IC50: 4200 nM

## CC(O)(Sc1ccc(N)cc1)c1cc2cc(Cl)c(C(F)(F)F)cc2[nH]1 (racemic) [Compound 265]
[3]
  % Activity, L929 androgen receptor functional assay: −1%
[1]; Concentration 3000 nM
  % Inhibition, Androgen Receptor Binding (Rat Cytosol): 93.5%

## CC(C)SC(C)(CO)c1cc2cc([N+](=O)[O-])c(C(F)(F)F)cc2[nH]1 (racemic) [Compound 268]
[2]
  active / inactive: inhibition of testosterone-enhanced prostate weight: inactive
[3]
  % Activity, L929 androgen receptor functional assay: 9%
[1]; Concentration 3000 nM
  % Inhibition, Androgen Receptor Binding (Rat Cytosol): −3.3%

## OC1(c2cc3cc(Cl)c(C(F)(F)F)cc3[nH]2)CCN(Cc2ccc(F)cc2)CC1 [Compound 28]
[1]; Concentration 1000 nM
  % Inhibition, Androgen Receptor Binding (Rat Cytosol): −3.4%
[1]
  IC50: 7000 nM

## CC(O)(c1cc2cc([N+](=O)[O-])c(C(F)(F)F)cc2[nH]1)S(=O)(=O)c1ccc(Cl)c(Cl)c1 (racemic) [Compound 255]
[1]; Concentration 1000 nM
  % Inhibition, Androgen Receptor Binding (Rat Cytosol): 26%

## OC1(c2cc3cc(Cl)c(C(F)(F)F)cc3[nH]2)CCN(Cc2ccc(Cl)cc2)CC1 [Compound 31]
[1]; Concentration 1000 nM
  % Inhibition, Androgen Receptor Binding (Rat Cytosol): 20%
[1]
  IC50: 4050 nM

## CC(O)(Sc1ccc(N)cc1)c1cc2cc([N+](=O)[O-])c(C(F)(F)F)cc2[nH]1 (racemic) [Compound 266]
[2]
  active / inactive: inhibition of testosterone-enhanced prostate weight: inactive
[3]
  % Activity, L929 androgen receptor functional assay: −4%
[1]; Concentration 3000 nM
  % Inhibition, Androgen Receptor Binding (Rat Cytosol): 12.4%

## O=[N+]([O-])c1cc2cc(C3(O)CCN(Cc4ccc(Cl)cc4)CC3)[nH]c2cc1C(F)(F)F [Compound 41]
[1]; Concentration 1000 nM, 1 µM
  % Inhibition, Androgen Receptor Binding (Rat Cytosol): 20%
[1]
  IC50: 2300 nM

## COc1cccc(CN2CCC(O)(c3cc4cc([N+](=O)[O-])c(C(F)(F)F)cc4[nH]3)CC2)c1 [Compound 38]
[1]; Concentration 1000 nM, 1 µM
  % Inhibition, Androgen Receptor Binding (Rat Cytosol): 16%
[1]
  IC50: 8800 nM

## O=[N+]([O-])c1cc2cc(C3(O)CCN(Cc4ccc(F)cc4)CC3)[nH]c2cc1C(F)(F)F [Compound 37]
[1]; Concentration 1000 nM
  inhibition at 1 µM: 25%
[1]
  IC50: 3600 nM

## O=[N+]([O-])c1cc2cc(C3(O)CCN(Cc4ccc(Cl)cc4)CC3)[nH]c2cc1C(F)(F)F [Compound 40]
[1]; Concentration 1000 nM, 1 µM
  % Inhibition, Androgen Receptor Binding (Rat Cytosol): −2.5%
[1]
  IC50: 3800 nM

## CS(=O)(=O)n1c(C2(O)CCN(C(=O)c3ccc(Cl)cc3)CC2)cc2cc(Cl)c(C(F)(F)F)cc21 [Compound 24]
[1]; Concentration 1000 nM
  % Inhibition, Androgen Receptor Binding (Rat Cytosol): 2%

## CN(C)c1ccc(S(=O)(=O)CC(C)(O)c2cc3cc(Cl)c(C(F)(F)F)cc3[nH]2)cc1 (racemic) [Compound 126]
[2]
  active / inactive: inhibition of testosterone-enhanced prostate weight: inactive
[3]
  % Activity, L929 androgen receptor functional assay: −5%
[1]; Concentration 3000 nM
  % Inhibition, Androgen Receptor Binding (Rat Cytosol): −30%

## Cc1ccc(CN2CCC(O)(c3cc4cc(Cl)c(C(F)(F)F)cc4[nH]3)CC2)cc1 [Compound 30]
[1]; Concentration 1000 nM
  % Inhibition, Androgen Receptor Binding (Rat Cytosol): −7.7%
[1]
  IC50: 4100 nM

## CC(C)(C)c1ccc(CN2CCC(O)(c3cc4cc(Cl)c(C(F)(F)F)cc4[nH]3)CC2)cc1 [Compound 32]
[1]; Concentration 1000 nM
  % Inhibition, Androgen Receptor Binding (Rat Cytosol): 34%
[1]
  IC50: 43000 nM

## COc1cccc(CN2CCC(O)(c3cc4cc([N+](=O)[O-])c(C(F)(F)F)cc4[nH]3)CC2)c1 [Compound 39]
[1]; Concentration 1000 nM, 1 µM
  % Inhibition, Androgen Receptor Binding (Rat Cytosol): 6%
[1]
  IC50: > 6100 nM

## CC(O)(CS(=O)(=O)c1ccc(F)cc1)c1cc2cc(C#N)c(C(F)(F)F)cc2[nH]1 (centres unmarked) [Compound 110]
[1]; Concentration 1000 nM
  inhibition at 1 µM: 58.5%
